Measurements reported in US11246856B2, “Methods of treating resistant cancers” (University of Maryland, Baltimore, priority 2017, dated 2022).

Assays:
[1] = tested on: A375-PLX-R cells; test: Immunoblot of ERK1/2 activity in A375-PLX-R cells; assay type: cell-based; settings: TEAD intact versus knockdown, FIG. 3F
Description: (§1) Equivalent amounts of protein were electrophoresed on denaturing and reducing 10% polyacrylamide gels and transferred to nitrocellulose membrane. The membrane was blocked by 5% nonfat dry milk for one hour and incubated with 1:1000 primary antibody in 5% nonfat dry milk. Blots were rinsed in TBS-T and then incubated with secondary antibodies (1:5000) for 2 h. Secondary antibody binding was visualized using ECL Prime (Amersham) chemiluminescence detection technology. For immunostaining, cells were harvested, suspended in growth medium, and plated in LAB-TEK II Chamber Slide System. After 24 h, the cells were fixed with 4% paraformaldehyde at room temperature for 15 min, washed three with phosphate-buffered saline, in 0.1% Triton X-100 for 15 min, washed with phosphate-buffered saline, and blocked for 1 h with phosphate-buffered saline containing 7.5% fetal calf serum. Primary antibodies were added, and the slides incubated overnight at 4° C. Cells were then washed three times with phosphate-buffered saline and incubated 1 h with the appropriate Alexa Flour fluorescence probe-conjugated secondary antibody. After additional washing, the cells were stained with DAPI for 10 min prior to imaging.

[2] = tested on: A375 cells; test: Cell proliferation, monolayer A375 cells; assay type: cell-based; settings: PLX4032 treatment, FIG. 1D
Description: A375, SK-MEL-5 and SK-MEL-28 cell lines were maintained in DMEM growth medium containing 10% FCS, 2 mM L-glutamine and 1 mM sodium pyruvate. The WM3248 cells were maintained in MCDB153:L15 (4:1) growth medium containing 2% FCS, […] insulin and 1.68 mM CaCl2. To create PLX4032-resistant cells, A375, SK-MEL-5, SK-MEL-28 and WM3248 cells were treated with […] in monolayer culture in growth medium for several weeks. The surviving cells were then expanded and cultured in increasing doses of PLX4032 up to […]. The resulting PLX4032-resistant cells, designated PLX4032-resistant (e.g., A375-PLX-R) were routinely maintained in the presence of […] PLX4032.

[3] = tested on: A375 cells; test: Immunofluorescence of YAP1/TAZ subcellular distribution; assay type: cell-based; settings: control versus PLX4032-treated A375 cells, FIG. 2D
Description: as §1

[4] = tested on: A375 spheroid cell-derived tumors; test: Tumor xenograft assay, A375 spheroid cell-derived tumors; assay type: in vivo, NSG mice
Description: (§2) Cells were grown for ten days as spheroids and a single cell suspension, prepared by trypsin digestion, was resuspended in phosphate buffered saline containing 30% Matrigel and 100 μl containing 0.1 million cells were injected subcutaneously at the two front flanks of NOD/scid/IL2 receptor gamma-knockout mice (NSG mice) using a 26.5 gauge needle. PLX4032 was dissolved in phosphate-buffered saline containing 10% DMSO and delivered at 20 mg/kg by oral gavage in […] three times per week (M/W/F). Verteporfin was dissolved in phosphate-buffered saline containing 10% DMSO and 0-100 mg/kg was delivered by intraperitoneal injection of […] three times per week (M/W/F). Five mice were used per group (two tumors per mouse) and treatment was initiated two days after tumor cell injection. Tumor growth was monitored by measuring tumor diameter and calculating tumor volume using the formula, volume=4/3π×(diameter/2)^3. Mice were euthanized by injection of 250 μl of a 2.5% stock of Avertin per mouse followed by cervical dislocation of the neck. Tumor samples were harvested to prepare extract for immunoblot and sections for immunostaining. These experiments were reviewed and approved by the University of Maryland-Baltimore Institutional Animal Care and Use Committee. The plotted values are mean±SEM and significance were determined using the students t-test.

[5] = tested on: YAP1, TAZ and TEAD in A375 and A375-PLX-R cells; test: YAP1/TAZ/TEAD mRNA and protein level after verteporfin, monolayer cells; assay type: cell-based
Description: as §1
Total RNA was isolated using Illustra RNAspin mini kit (GE Healthcare), and 1 μg of RNA was used for cDNA synthesis. Gene expression was measured by real time PCR using Light Cycler 480 SYBR Green I Master Mix (04-707 516 001) from Roche Diagnostics (Indianapolis, Ind.). The signals were normalized using cyclophilin A control primers. The gene specific primers used for detection of mRNA levels were as follows: cyclophilin A (forward, 5′-[…] (SEQ ID NO: 3); reverse, 5′-[…] (SEQ ID NO: 4)), TAZ (forward, 5′-GTATCCCAGCCAATC TCG (SEQ ID NO: 5); reverse, 5′-TTCTGAGTGGGGTGGTTC (SEQ ID NO: 6)) and YAP1 (forward, 5′-[…] (SEQ ID NO: 7); reverse, 5′-[…], (SEQ ID NO: 8)) (11).
To understand the mechanism of verteporfin action, monolayer A375 and A375-PLX-R cells were treated with […] verteporfin for 24 h and the impact on YAP1/TAZ mRNA and protein level was monitored. […] The proteasome is known to regulate YAP1/TAZ level (29,30) and so whether the proteasome was responsible for the observed reductions was examined.

[6] = tested on: melanoma cell tumor formation (MCS cells); test: Tumor xenograft assay, verteporfin alone (FIGS. 6D-6F); assay type: in vivo, NSG mice; settings: verteporfin intraperitoneal, tumor cell line not stated
Description: as §2

[7] = tested on: pre-formed spheroids; test: Treatment of pre-formed spheroids; assay type: cell-based
Description: Cancer cells were maintained under attached conditions in growth media containing DMEM (Invitrogen, Frederick, Md.) supplemented with 4.5 mg/ml D-glucose, […] L-glutamine, 100 mg/ml sodium pyruvate, and 5% fetal calf serum. For spheroid culture, monolayer cultures were dissociated with 0.25% trypsin and the cells were collected by centrifugation, and resuspended in spheroid media, consisting of DMEM/F12 (1:1) (DMT-10-090-CV, Mediatech INC, Manassa, Va.) containing 2% B27 serum-free supplement (17504-044, Invitrogen, Frederick, Md.) 20 ng/ml EGF (E4269, Sigma, St. Louis), 0.4% bovine serum albumin (B4287, Sigma) and […] insulin (19278 Sigma, St. Louis, Mo.) and plated at 40,000 cells per 9.6 cm^2 well in six well ultra-low attachment Costar cluster dishes (4371, Corning, Tewksbury, Mass.). Parallel cultures were plated in spheroid media on conventional plastic dishes for growth as monolayer cultures.
Identification of agents that suppress survival of PLX4032-resistant cells, or re-sensitize these cells to PLX4032, is an important goal. […] YAP1 interacts with TEAD transcription factors to drive gene expression (6,28) and a small molecular inhibitor called verteporfin has been reported to disrupt YAP1/TEAD interaction by binding to YAP1 and altering its structure (6,16). The impact of verteporfin treatment on spheroid formation and matrigel invasion in PLX4032 sensitive and resistant MCS cells was examined.

| Compound | ERK1/2 activity [1] | A375 cell proliferation [2] | YAP1 intracellular distribution [3] | tumor growth ([4]; PLX4032 20 mg/kg oral gavage three times per week, FIG. 6B) | p21Cip1 level in tumors ([4]; PLX4032-treated A375 tumors, FIG. 6C) | level of YAP1 or TAZ mRNA ([5]; 1 mM verteporfin, 24 h, monolayer, FIG. 4F) | YAP1 and TAZ protein levels ([5]; 1 mM verteporfin, 24 h, monolayer, FIG. 4G) | TEAD transcription factor levels ([5]; verteporfin treatment, FIG. 4H) | YAP1 and TAZ level in tumors ([6]; FIG. 6F) | tumor size / tumor formation ([6]; FIGS. 6D-6E) | reduction of spheroid number/integrity ([7]; 20 μM verteporfin, 3-day treatment, FIG. 4C legend) | pre-formed spheroids after prolonged treatment ([7]; prolonged verteporfin treatment (not shown)) | reduction of spheroid number/integrity ([7]; spheroids formed for 8 d, 3D treatment, FIG. 4C) |
| --- | --- | --- | --- | --- | --- | --- | --- | --- | --- | --- | --- | --- | --- |
| CCCS(=O)(=O)Nc1ccc(F)c(C(=O)c2c[nH]c3ncc(-c4ccc(Cl)cc4)cc23)c1F [PLX4032] | only reduced in A375-PLX-R cells following TEAD knockdown and PLX4032 treatment | reduces | no major change | suppressed | slightly elevated | – | – | – | – | – | – | – | – |
| verteporfin | – | – | – | – | – | did not impact | reduced | reduced | suppressed | reduced | 30-50% | complete destruction | 30-50% |
